Assay [1] concerns Glo-Response ARE-luc2P HEK293 cell line. The assay can be described thus: ARE luciferase reporter cell-based assay.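 Note: luciferase signal tracks Nrf2 activation of the ARE once compounds disrupt KEAP1-Nrf2 binding, read with One-Glo reagent, DMSO serving as low control.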 The following applies: Homo sapiens, HEK293, 24 h, average of results obtained. (A reporter such as luciferase makes a cellular process visible.)
For assay [2], the target named is Kelch domain of human KEAP1 (321-624 aa) (Homo sapiens (Human), UniProt Q14145). Kind of assay: KEAP1 KELCH ThermoFluor binding assay.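 Note: Ligand-induced melting temperature shift of E. coli-expressed KEAP1 Kelch protein, Kd estimated from concentration-response curves of ΔTm.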 The following applies: KEAP Kelch […], 1,8-ANS, pH 7.0, average of results obtained, read-out: Tf Kd. (In general: In DSF a fluorescence change marks the thermal transition of the protein.)
Sequence of Kelch domain of human KEAP1 (321-624 aa) (Q14145 321-624): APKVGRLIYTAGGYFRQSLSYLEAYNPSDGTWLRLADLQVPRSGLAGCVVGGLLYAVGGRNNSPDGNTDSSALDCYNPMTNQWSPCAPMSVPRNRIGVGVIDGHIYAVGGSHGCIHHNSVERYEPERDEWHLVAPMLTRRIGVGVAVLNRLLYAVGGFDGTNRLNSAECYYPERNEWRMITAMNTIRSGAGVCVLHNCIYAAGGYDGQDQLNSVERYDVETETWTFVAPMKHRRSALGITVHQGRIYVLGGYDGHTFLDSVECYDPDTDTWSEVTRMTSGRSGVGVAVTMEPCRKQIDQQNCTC

Molecules are shown by their SMILES.

Usually EC50 stands for the midpoint of the concentration-response curve. Broadly, the Kd is the concentration at which binding is half-saturated.

As to `Cc1ccc([C@H](CC(=O)O)c2cc(OC3CC3)c3c(c2)nnn3C)cc1CN1C[C@H]2CCCN2c2ncccc2S1(=O)=O` (single isomer, unassigned) [Example 5, (*S)-3-(7-Cyclopropoxy-1-methyl-1H-benzo[d][1,2,3]triazol-5-yl)-3-(3-(((R)-5,5-dioxido-7a,8,9,10-tetrahydropyrido[2,3-f]pyrrolo[2,1-d][1,2,5]thiadiazepin-6(7H)-yl)methyl)-4-methylphenyl)propanoic Acid], the EC50 in assay [1] was 110 nM. Besides, the Kd in assay [2] was found to be 0.518 nM.
`Cc1ccc([C@@H](CC(=O)O)c2cc(OC3CC3)c3c(c2)nnn3C)cc1CN1C[C@H]2CCCN2c2ncccc2S1(=O)=O` (single isomer, unassigned) [Example 6, (*R)-3-(7-Cyclopropoxy-1-methyl-1H-benzo[d][1,2,3]triazol-5-yl)-3-(3-(((R)-5,5-dioxido-7a,8,9,10-tetrahydropyrido[2,3-f]pyrrolo[2,1-d][1,2,5]thiadiazepin-6(7H)-yl)methyl)-4-methylphenyl)propanoic Acid]: the EC50 in assay [1] was 42 nM. Further, in assay [2], the equilibrium dissociation constant (Kd) stood at 0.089 nM.
For `Cc1ccc([C@H](CC(=O)O)c2ccn3c(C(F)(F)F)nnc3c2C)cc1CN1CC2(CC2)Oc2ncccc2S1(=O)=O` (single isomer, unassigned) [Example 7, (*S)-3-(3-((1′,1′-Dioxidospiro[cyclopropane-1,4′-pyrido[2,3-b][1,4,5]oxathiazepin]-2′(3′H)-yl)methyl)-4-methylphenyl)-3-(8-methyl-3-(trifluoromethyl)-[1,2,4]triazolo[4,3-a]pyridin-7-yl)propanoic Acid] the same measures were 74 nM and 0.127 nM.
For `Cc1ccc([C@@H](CC(=O)O)c2ccn3c(C(F)(F)F)nnc3c2C)cc1CN1CC2(CC2)Oc2ncccc2S1(=O)=O` (single isomer, unassigned) [Example 8, (*R)-3-(3-((1′,1′-dioxidospiro[cyclopropane-1,4′-pyrido[2,3-b][1,4,5]oxathiazepin]-2′(3′H)-yl)methyl)-4-methylphenyl)-3-(8-methyl-3-(trifluoromethyl)-[1,2,4]triazolo[4,3-a]pyridin-7-yl)propanoic Acid] the same measures were 660 nM and 0.188 nM.
For `Cc1ccc([C@H](CC(=O)O)c2ccn3c(C(F)(F)F)nnc3c2C)cc1CN1C[C@H]2CCCCN2c2ncc(C#N)cc2S1(=O)=O` (single isomer, unassigned) [Example 9, (*S)-3-(3-(((*R)-3-Cyano-5,5-dioxido-7,7a,8,9,10,11-hexahydro-6H-dipyrido[2,1-d:2′,3′-f][1,2,5]thiadiazepin-6-yl)methyl)-4-methylphenyl)-3-(8-methyl-3-(trifluoromethyl)-[1,2,4]triazolo[4,3-a]pyridin-7-yl)propanoic Acid] the same measures were 3.8 nM and < 1 nM.
Take `Cc1ccc([C@H](CC(=O)O)c2ccn3c(C(F)(F)F)nnc3c2C)cc1CN1C[C@@H]2CCCCN2c2ncc(C#N)cc2S1(=O)=O` (single isomer, unassigned) [Example 10, (*S)-3-(3-(((*S)-3-Cyano-5,5-dioxido-7,7a,8,9,10,11-hexahydro-6H-dipyrido[2,1-d:2′,3′-f][1,2,5]thiadiazepin-6-yl)methyl)-4-methylphenyl)-3-(8-methyl-3-(trifluoromethyl)-[1,2,4]triazolo[4,3-a]pyridin-7-yl)propanoic Acid]: the EC50 in assay [1] is 5.2 nM. For the same molecule, the Kd in assay [2] was < 1 nM.
`Cc1ccc([C@@H](CC(=O)O)c2ccc3c(nnn3CC3CC3)c2C)cc1CN1C[C@]2(C)CCCN2c2ncccc2S1(=O)=O` (single isomer, unassigned) [Example 13, (*R)-3-(1-(Cyclopropylmethyl)-4-methyl-1H-benzo[d][1,2,3]triazol-5-yl)-3-(4-methyl-3-(((*S)-7a-methyl-5,5-dioxido-7a,8,9,10-tetrahydropyrido[2,3-f]pyrrolo[2,1-d][1,2,5]thiadiazepin-6(7H)-yl)methyl)phenyl)propanoic Acid] showed an EC50 in assay [1] of 37.8 nM. In addition, the Kd in assay [2] came out at 0.079 nM.
For `CCn1nnc2c(C)c([C@@H](c3ccc(C)c(CN4CC5(CCOCC5)Oc5ncccc5S4(=O)=O)c3)C(C)(C)C(=O)O)ccc21` (single isomer, unassigned) [Example 16, (*R)-3-(3-((1′,1′-Dioxido-2,3,5,6-tetrahydrospiro[pyran-4,4′-pyrido[2,3-b][1,4,5]oxathiazepin]-2′(3′H)-yl)methyl)-4-methylphenyl)-3-(1-ethyl-4-methyl-1H-benzo[d][1,2,3]triazol-5-yl)-2,2-dimethylpropanoic Acid] the same measures were 233 nM and 838 nM.
For `Cc1cnc2c(c1)S(=O)(=O)N(Cc1cc([C@H](c3ccn4c(C(F)(F)F)nnc4c3C)C(C)(C)C(=O)O)ccc1C)CC1(CCOCC1)O2` (single isomer, unassigned) [Example 19, (*R)-2,2-Dimethyl-3-(4-methyl-3-((8′-methyl-1′,1′-dioxido-2,3,5,6-tetrahydrospiro[pyran-4,4′-pyrido[2,3-b][1,4,5]oxathiazepin]-2′(3′H)-yl)methyl)phenyl)-3-(8-methyl-3-(trifluoromethyl)-[1,2,4]triazolo[4,3-a]pyridin-7-yl)propanoic Acid] the same measures were 789 nM and 1280 nM.
For `CCn1nnc2c(C)c([C@@H](CC(=O)O)c3ccc(C)c(CN4C[C@H]5CCCN5c5ncccc5S4(=O)=O)c3)ccc21` (single isomer, unassigned) [Example 21, (*S)-3-(3-(((R)-5,5-Dioxido-7a,8,9,10-tetrahydropyrido[2,3-f]pyrrolo[2,1-d][1,2,5]thiadiazepin-6(7H)-yl)methyl)-4-methylphenyl)-3-(1-ethyl-4-methyl-1H-benzo[d][1,2,3]triazol-5-yl)propanoic Acid] the same measures were 28 nM and 0.273 nM.
`CCn1nnc2c(C)c([C@H](CC(=O)O)c3ccc(C)c(CN4C[C@H]5CCCN5c5ncccc5S4(=O)=O)c3)ccc21` (single isomer, unassigned) [Example 22, (*R)-3-(3-(((R)-5,5-Dioxido-7a,8,9,10-tetrahydropyrido[2,3-f]pyrrolo[2,1-d][1,2,5]thiadiazepin-6(7H)-yl)methyl)-4-methylphenyl)-3-(1-ethyl-4-methyl-1H-benzo[d][1,2,3]triazol-5-yl)propanoic Acid] displayed an EC50 in assay [1] of 3.9 nM. The Kd in assay [2] turned out to be 0.081 nM.
For `Cc1ccc([C@H](CC(=O)O)c2ccc3c(nnn3C3CC3)c2C)cc1CN1C[C@@H]2COCCN2c2ncccc2S1(=O)=O` (single isomer, unassigned) [Example 24, (*S)-3-(1-Cyclopropyl-4-methyl-1H-benzo[d][1,2,3]triazol-5-yl)-3-(3-(((*R)-5,5-dioxido-7a,8,10,11-tetrahydro-[1,4]oxazino[3,4-d]pyrido[2,3-f][1,2,5]thiadiazepin-6(7H)-yl)methyl)-4-methylphenyl)propanoic Acid] the same measures were 4.1 nM and 0.264 nM.

The values are drawn from patent publication US10947252B2, “Inhibitors of KEAP1-Nrf2 protein-protein interaction” (Janssen Pharmaceutica NV, priority 2018, dated 2021).
